ChEMBL document CHEMBL1201862, “PubChem BioAssay data set” (2004)
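Cultured in 96-well plates, cells were exposed to test compound for 48 hours across five concentrations. At the GI50, growth is halved.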 Calls of active or inactive are those of the source. No stated cut-off is given here; in the data, active = GI50 up to about 1.1 µM and inactive = higher.

Key:
Test in all cases: NCI anticancer screen, dose series, 48 h
[1] = system: 786-0
[2] = system: A498
[3] = system: ACHN
[4] = system: CCRF-CEM
[5] = system: COLO 205
[6] = system: HCC 2998
[7] = system: IGROV-1
[8] = system: K562
[9] = system: LXFL 529
[10] = system: OVCAR-4
[11] = system: SN12C
[12] = system: SNB-75
[13] = system: U-251
[14] = system: UACC-257
[15] = system: UO-31
[16] = system: OVCAR-5

## COc1ccc(C2(CN(C)C)COc3cc(OC)c(OC)cc3C2=O)cc1OC (configuration not stated)
[1]
  GI50: > 100 µM (inactive)
[2]
  GI50: 74.8 µM (inactive)
[3]
  GI50: 89.5 µM (inactive)
[4]
  GI50: 19.6 µM (inactive)
[5]
  GI50: 26.6 µM (inactive)
[6]
  GI50: > 100 µM (inactive)
[7]
  GI50: > 100 µM (inactive)
[8]
  GI50: 31.6 µM (inactive)
[9]
  GI50: 20.1 µM (inactive)
[10]
  GI50: 34.6 µM (inactive)
[11]
  GI50: 77.1 µM (inactive)
[12]
  GI50: 47 µM (inactive)
[13]
  GI50: 45.9 µM (inactive)
[14]
  GI50: 49.1 µM (inactive)
[15]
  GI50: 44.8 µM (inactive)

## COC1=CC(=O)C2C(C1=O)C(c1ccccc1)[C@H]2C (some centres not stated)
[1]
  GI50: > 100 µM (inactive)
[2]
  GI50: > 100 µM (inactive)
[3]
  GI50: 25.5 µM (inactive)
[4]
  GI50: 28.4 µM (inactive)
[5]
  GI50: > 100 µM (inactive)
[6]
  GI50: > 100 µM (inactive)
[7]
  GI50: > 100 µM (inactive)
[8]
  GI50: 34.4 µM (inactive)
[9]
  GI50: 37.2 µM (inactive)
[16]
  GI50: > 100 µM (inactive)
[12]
  GI50: 32.3 µM (inactive)
[13]
  GI50: > 100 µM (inactive)
[15]
  GI50: > 100 µM (inactive)

## O=C(c1ccccc1)[C@H]1Nc2ccc(Cl)cc2[C@H]2c3ccccc3O[C@H]21
[1]
  GI50: 16.6 µM (inactive)
[2]
  GI50: 12.1 µM (inactive)
[3]
  GI50: 15.2 µM (inactive)
[5]
  GI50: 18.7 µM (inactive)
[6]
  GI50: 16.8 µM (inactive)
[7]
  GI50: 17.7 µM (inactive)
[8]
  GI50: 14.5 µM (inactive)
[9]
  GI50: 15 µM (inactive)
[10]
  GI50: 18.2 µM (inactive)
[16]
  GI50: 16 µM (inactive)
[11]
  GI50: 14.1 µM (inactive)
[12]
  GI50: 12.4 µM (inactive)
[13]
  GI50: 15.6 µM (inactive)
[14]
  GI50: 2.45 µM (inactive)
[15]
  GI50: 5.27 µM (inactive)

## O=c1cc2n(c(=O)[nH]1)C1OC(C(O)C1O)[C@H]2CCO (some centres not stated)
[1]
  GI50: > 100 µM (inactive)
[2]
  GI50: > 100 µM (inactive)
[3]
  GI50: > 100 µM (inactive)
[4]
  GI50: > 100 µM (inactive)
[5]
  GI50: > 100 µM (inactive)
[7]
  GI50: > 100 µM (inactive)
[8]
  GI50: > 100 µM (inactive)
[9]
  GI50: > 100 µM (inactive)
[10]
  GI50: > 100 µM (inactive)
[16]
  GI50: > 100 µM (inactive)
[11]
  GI50: > 100 µM (inactive)
[13]
  GI50: > 100 µM (inactive)
[14]
  GI50: > 100 µM (inactive)
[15]
  GI50: > 100 µM (inactive)

## CC(C)C1C(=O)NC(CO)Cc2c[nH]c3c(C(c4c[nH]c5ccccc45)C(O)CO)ccc(c23)N1C (configuration not stated)
[1]
  GI50: 62.8 µM (inactive)
[2]
  GI50: 14.5 µM (inactive)
[3]
  GI50: 41.3 µM (inactive)
[4]
  GI50: 30.1 µM (inactive)
[5]
  GI50: 4.79 µM (inactive)
[6]
  GI50: 3.38 µM (inactive)
[7]
  GI50: > 100 µM (inactive)
[8]
  GI50: 4.19 µM (inactive)
[9]
  GI50: 96.4 µM (inactive)
[10]
  GI50: > 100 µM (inactive)
[11]
  GI50: > 100 µM (inactive)
[12]
  GI50: 84.9 µM (inactive)
[14]
  GI50: > 100 µM (inactive)
[15]
  GI50: > 100 µM (inactive)

## Brc1ccc(C2SCc3nc4ccccc4n32)cc1 (configuration not stated)
[1]
  GI50: 12.2 µM (inactive)
[3]
  GI50: 8.2 µM (inactive)
[4]
  GI50: 15.7 µM (inactive)
[5]
  GI50: 12.7 µM (inactive)
[7]
  GI50: 10.3 µM (inactive)
[8]
  GI50: 3.65 µM (inactive)
[9]
  GI50: 7.36 µM (inactive)
[10]
  GI50: 7.53 µM (inactive)
[16]
  GI50: 5.4 µM (inactive)
[11]
  GI50: 13.7 µM (inactive)
[12]
  GI50: < 0.01 µM (active)
[13]
  GI50: 12 µM (inactive)
[15]
  GI50: 11 µM (inactive)

## CCCCCCCCc1cc2c(O)c(c1)Cc1cc(CCCCCCCC)cc(c1O)Cc1cc(CCCCCCCC)cc(c1O)Cc1cc(CCCCCCCC)cc(c1O)Cc1cc(CCCCCCCC)cc(c1O)Cc1cc(CCCCCCCC)cc(c1O)C2
[1]
  GI50: > 100 µM (inactive)
[2]
  GI50: > 100 µM (inactive)
[3]
  GI50: > 100 µM (inactive)
[4]
  GI50: > 100 µM (inactive)
[5]
  GI50: > 100 µM (inactive)
[6]
  GI50: > 100 µM (inactive)
[7]
  GI50: > 100 µM (inactive)
[8]
  GI50: > 100 µM (inactive)
[9]
  GI50: > 100 µM (inactive)
[16]
  GI50: > 100 µM (inactive)
[11]
  GI50: > 100 µM (inactive)
[12]
  GI50: > 100 µM (inactive)
[13]
  GI50: > 100 µM (inactive)
[14]
  GI50: > 100 µM (inactive)
[15]
  GI50: > 100 µM (inactive)

## Cc1ccc(F)c2c(=O)cc(-c3ccccc3)[nH]c12
[1]
  GI50: > 100 µM (inactive)
[3]
  GI50: > 100 µM (inactive)
[4]
  GI50: > 100 µM (inactive)
[5]
  GI50: > 100 µM (inactive)
[7]
  GI50: > 100 µM (inactive)
[8]
  GI50: > 100 µM (inactive)
[9]
  GI50: > 100 µM (inactive)
[10]
  GI50: > 100 µM (inactive)
[16]
  GI50: > 100 µM (inactive)
[11]
  GI50: > 100 µM (inactive)
[12]
  GI50: 26 µM (inactive)
[13]
  GI50: > 100 µM (inactive)
[14]
  GI50: > 100 µM (inactive)
[15]
  GI50: 60.3 µM (inactive)

## CCOc1cn(C2OC(CO)C(O)C2O)c(=O)[nH]c1=O (configuration not stated)
[1]
  GI50: > 100 µM (inactive)
[2]
  GI50: > 100 µM (inactive)
[3]
  GI50: > 100 µM (inactive)
[4]
  GI50: > 100 µM (inactive)
[5]
  GI50: 95.5 µM (inactive)
[6]
  GI50: > 100 µM (inactive)
[7]
  GI50: > 100 µM (inactive)
[8]
  GI50: > 100 µM (inactive)
[9]
  GI50: > 100 µM (inactive)
[16]
  GI50: > 100 µM (inactive)
[11]
  GI50: > 100 µM (inactive)
[12]
  GI50: > 100 µM (inactive)
[13]
  GI50: 20.3 µM (inactive)
[14]
  GI50: > 100 µM (inactive)
[15]
  GI50: > 100 µM (inactive)

## CCOc1ccc(N(CC(=O)N2CC(=O)Nc3cc(C)c(C)cc32)C(C)=O)cc1
[1]
  GI50: > 100 µM (inactive)
[3]
  GI50: > 100 µM (inactive)
[4]
  GI50: > 100 µM (inactive)
[5]
  GI50: > 100 µM (inactive)
[6]
  GI50: > 100 µM (inactive)
[8]
  GI50: > 100 µM (inactive)
[9]
  GI50: > 100 µM (inactive)
[10]
  GI50: > 100 µM (inactive)
[16]
  GI50: > 100 µM (inactive)
[11]
  GI50: > 100 µM (inactive)
[12]
  GI50: > 100 µM (inactive)
[13]
  GI50: > 100 µM (inactive)
[14]
  GI50: > 100 µM (inactive)
[15]
  GI50: 75.7 µM (inactive)
